Reference: EP0140395A1, “Water soluble derivatives of 1-(2-hydroxyethyl)-2-methyl-5-nitro-imidazole having therapeutical activity, process for its preparation and related pharmaceutical compositions” (Pietro Isnardi & C. Spa, priority 1983, dated 1985)
≈ marks a conversion by molar mass, not a printed value.

How the values were obtained:
Trichomonas vaginalis = test: Minimum inhibiting concentration in five strains, in comparison with metronidazole; type: cell-based; conditions: for MIC: average over five strains of Trichomonas vaginalis, metronidazole as 1 mg/ml solution in dimethyl sulfoxide, compound of the invention as 1 mg/ml water solution
Description: The minimum inhibiting concentration (MIC) was investigated in five strains of Trichomonas vaginalis, in comparison with metronidazole.
Metronidazole was tested in form of a solution in dimethyl sulfoxide at a concentration of 1 mg/ml whereas the compound of the invention was tested in form of a water solution at a concentration of 1 mg/ml.

[1] = Toxicity (LD50) in the rat; conditions: in vivo
Source text: (§1) The compound of the invention has been pharmacologically tested.
(§2) As regards the toxicity the following results were found: […]

[2] = Toxicity (LD50) in the mouse; conditions: in vivo
Source text: as §1, §2

Kinetic tests in the rat = type: in vivo
[3] = Solubility of the compound; type: physicochemical

| SMILES | MIC (Trichomonas vaginalis) [µg/mL] | LD50 ([1]; ip) [mg/kg] | LD50 ([1]; po, per os) [mg/kg] | LD50 ([2]; ip) [mg/kg] | LD50 ([2]; po, per os) [mg/kg] | microbiological activity (Trichomonas vaginalis; preliminary tests, compared with metronidazole) | conversion into metronidazole (Kinetic tests in the rat; in the organism and in acidic environment) | dose excreted (Kinetic tests in the rat; urine, after parenteral administration, read-out: urinary excretion) [%] | solubility in anhydrous alcohols, acetone and chloroform ([3]; anhydrous alcohols, acetone and chloroform) | solubility in water ([3]; water) |
| --- | --- | --- | --- | --- | --- | --- | --- | --- | --- | --- |
| Cc1ncc([N+](=O)[O-])n1CCO [metronidazole, 1-(2-hydroxyethyl)-2-methyl-5-nitro-imidazole] | 5 (≈ 29.2 µM) |  |  |  |  |  |  |  |  |  |
| Cc1ncc([N+](=O)[O-])n1CCOC(=O)NCCCCC(N)C(=O)O (centres unmarked) [compound of the invention, N-(5-carboxy-5-aminopentan)-carbamic ester of 1-(2-hydroxyethyl)-2-methyl-5-nitro-imidazole] | 2.5 (≈ 7.28 µM) | 870 | 1620 | > 4000 | > 4000 | greater microbiological activity | not converted into metronidazole neither in the organism nor in acidic environnment | < 30 | insoluble | perfectly soluble in water |
